Where two headings read alike, the source gives them in different places.
Experiments:
mice = details: cited from earlier work
[1] = biological target: T1, α7 nicotinic acetylcholine receptor (Rattus norvegicus, UniProt Q05941); details: cited from earlier work
T1 construct: expressed in transfected cells; host or cells: KXa7R1 cell line (HEK293)

[2] = tested on: Treatment Resistant Depression (TRD); experiment: Example 5 pilot study: combined subcutaneous/IV and oral ketamine in TRD patients; format: in vivo, human; details: for mean MADRS reduction: TRD patients
Procedure: Six patients diagnosed with Treatment Resistant Depression (TRD) received a combined ketamine treatment as outlined below. Their mean age was 53.1 (SD: 9.3). Five of the patients had previously attempted suicide and been admitted to a psychiatric unit. Three patients had received electroconvulsive therapy (ECT).
Five of the patients received oral ketamine of dose range 120-240 mg, (for example three to six capsules of 40 mg/day as described herein), once a week, four days after ketamine subcutaneous (0.5 mg-1.0 mg/kg) was administered once a week.
One patient received ketamine intravenously once a week and oral ketamine twice a week of dose 240 mg (for example, six capsules of 40 mg/day as described herein) each time.
The patients received on average 30.8 weeks (SD:7.7) ketamine subcutaneous-oral treatment and 10.6 weeks (SD: 6.7) ketamine IV-oral treatment.
This pilot study was conducted to explore the safety, tolerability, and potential clinical effectiveness of a treatment with repeated, low-dose oral ketamine capsules.

[3] = tested on: depressive disorder patients; experiment: Example 6: subcut/IV ketamine with supplemental oral dose, then oral only; format: in vivo, human
Procedure: Patients (n=12 patients) were administered a ketamine-based treatment comprising a subcut/IV ketamine dose with a supplemental oral dose (as described herein).

[4] = tested on: Major Depression Disorder (MDD) and Treatment-resistant depression (TRD); details: single IV administration, subanaesthetic dose 0.5 mg/kg; cited from earlier work
[5] = cited from earlier work
depression = details: oral, 2019 systematic review; cited from earlier work

T1 sequence (Q05941 23-502): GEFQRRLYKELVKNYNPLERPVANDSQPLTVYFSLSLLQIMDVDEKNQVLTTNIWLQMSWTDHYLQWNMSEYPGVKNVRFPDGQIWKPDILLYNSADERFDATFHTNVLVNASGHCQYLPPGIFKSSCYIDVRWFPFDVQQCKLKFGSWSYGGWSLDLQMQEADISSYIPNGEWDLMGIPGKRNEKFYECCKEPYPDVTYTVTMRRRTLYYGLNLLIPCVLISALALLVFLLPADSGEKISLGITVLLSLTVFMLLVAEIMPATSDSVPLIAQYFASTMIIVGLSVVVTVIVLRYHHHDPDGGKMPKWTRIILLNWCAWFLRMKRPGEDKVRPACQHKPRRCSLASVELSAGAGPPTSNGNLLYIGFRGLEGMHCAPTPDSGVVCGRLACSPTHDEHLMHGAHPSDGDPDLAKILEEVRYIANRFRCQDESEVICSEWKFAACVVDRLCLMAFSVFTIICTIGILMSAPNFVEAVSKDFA

N[C@@]1(c2ccccc2Cl)CCC[C@@H](O)C1=O [(2R,6R)-HNK]
antidepressant-like effects (mice): ketamine-type antidepressant-like effects

NC1(c2ccccc2Cl)CCC=CC1=O (stereo not shown) [dehydronorketamine]
IC50 ([1]; KXa7R1 cell line (HEK293 cells transfected with rat nicotinic acetylcholine receptor genes)): 55 nM
potency as negative allosteric modulator ([1]; KXa7R1 cell line): subanaesthetic and nanomolar potencies

NC1(c2ccccc2Cl)CCCC(O)C1=O (stereo not shown) [hydroxynorketamine]
potency as negative allosteric modulator ([1]; KXa7R1 cell line): subanaesthetic and nanomolar potencies

CNC1(c2ccccc2Cl)CCCCC1=O (stereo not shown) [ketamine, Ketamine]
response and tolerability of the treatment regimens ([2]; after 45 to 75 minutes after dosing): good response and tolerability in all patients
mean MADRS reduction ([2]; between first and last treatment, subcutaneous-oral ketamine treatment): −5.7 (SD: 11.0)
mean MADRS reduction ([2]; intravenous-oral ketamine treatment): −5.7 (SD: 10.0)
duration of significant improvement of cognition ([2]; one patient, ketamine IV once a week and oral ketamine twice a week 240 mg): 24 to 36 h
severity of adverse events ([2]; repeated, low-dose oral ketamine capsules): Most adverse events were moderate and self-limiting
ketamine cravings or urge to use beyond the prescribed period ([2]; six TRD patients): No participant reported ketamine cravings
onset of moderate discomforts or moderate increase of pre-existing discomforts, reports ([2]; six TRD patients): 32 times
positive effects (reduction of suicidal thoughts, improved mood, cognition, increased energy) ([2]; six TRD patients): Most of the participants reported positive effects
premature discontinuation of treatment ([2]; six TRD patients): none of the participants discontinued treatment prematurely
serious side effects ([2]; six TRD patients): No serious side effects occurred
tolerability of treatment with oral ketamine ([2]; six TRD patients): well-tolerated
response to oral ketamine after stopping initial IV or subcutaneous ketamine treatment ([3]; especially oral twice a week at 160-240 mg): respond very well
remission levels after switch to oral only treatment ([3]; n=12 patients, oral only): maintained their remission levels at the same level as when administered the combination treatment
remission via MADRS scores ([3]; n=12 patients, subcut/IV ketamine dose with supplemental oral dose): ~50%
activity at the same concentrations ([1]; KXa7R1 cell line, <1 μM): inactive
duration of antidepressant effect [4]: 4 to 7 days
time to antidepressant action [4]: ≤ 24 h
Bioavailability ([5]; intranasally): 8-50%
time to peak plasma concentrations ([5]; intravenously): within a minute
Bioavailability ([5]; oral route): 17-20%
time to peak plasma concentrations ([5]; orally): 30 min
Bioavailability ([5]; rectally): up to 30%
Bioavailability ([5]; sublingually): up to 30%
antidepressant effects (depression): significant antidepressant effects
tolerability (depression): good overall tolerability

NC1(c2ccccc2Cl)CCCCC1=O (stereo not shown) [norketamine]
potency as negative allosteric modulator ([1]; KXa7R1 cell line): subanaesthetic and nanomolar potencies
plasma levels of metabolite relative to ketamine ([5]; following oral administration of ketamine): three times higher than ketamine

From patent US20240315987A1, “ORAL CO[…] COMBINED WITH S[…] I[…] FOR USE IN THE TREATMENT, CONTROL OR PREVENTION OF DEPRESSIVE DISORDERS” (N[…] LTD., priority 2020, published 2024)
